The source made the active and inactive calls.
Key:
[1] = target: T1, ATP-dependent translocase ABCB1 (Homo sapiens, UniProt P08183); experiment: P-gp JC-1 efflux blockade concentration-response – Jurkat-DNR cells, flow cytometry, set 2, dose response (AID 504569); type: functional; conditions: read-out: EC50_MICROM_;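 also: potency of pump inhibitors that raise cellular JC-1 green fluorescence up to the nicardipine level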
[2] = target: T1, ATP-dependent translocase ABCB1; experiment: inhibition of BCRP-mediated JC-1 efflux – Ig-MXP3 cells, flow cytometry, set 2, dose response (AID 504566); type: functional; conditions: read-out: EC50_MICROM_;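 also: flow cytometry median green fluorescence of retained JC-1 dye; potency of efflux pump inhibition measured as rising substrate retention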
[3] = target: Hepatocyte nuclear factor 4-alpha (Homo sapiens, UniProt P41235); type: functional, cell-based;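 also: biochemical luminescence-based dose-response counterscreen measuring inhibition of HNF4 dimerization, run alongside a screen for blockers of ABHD5–perilipin-5 interaction; split luciferase complementation of HNF4 fusion proteins in cell lysate measuring dimerization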
Chain of Hepatocyte nuclear factor 4-alpha (P41235 whole entry, the tested form may be a part): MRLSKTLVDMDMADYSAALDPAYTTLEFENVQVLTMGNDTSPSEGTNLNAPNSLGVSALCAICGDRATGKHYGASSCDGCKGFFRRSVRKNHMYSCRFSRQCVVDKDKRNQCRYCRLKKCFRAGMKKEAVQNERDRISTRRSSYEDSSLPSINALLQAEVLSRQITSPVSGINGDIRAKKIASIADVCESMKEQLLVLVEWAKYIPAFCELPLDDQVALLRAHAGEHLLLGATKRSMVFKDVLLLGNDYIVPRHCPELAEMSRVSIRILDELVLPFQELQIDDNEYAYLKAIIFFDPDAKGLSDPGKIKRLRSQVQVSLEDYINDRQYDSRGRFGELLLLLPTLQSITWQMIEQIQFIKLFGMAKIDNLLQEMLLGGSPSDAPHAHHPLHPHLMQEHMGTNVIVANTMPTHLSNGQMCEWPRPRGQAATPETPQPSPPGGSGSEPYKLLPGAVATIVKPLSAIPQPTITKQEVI

T1 sequence (P08183 whole entry): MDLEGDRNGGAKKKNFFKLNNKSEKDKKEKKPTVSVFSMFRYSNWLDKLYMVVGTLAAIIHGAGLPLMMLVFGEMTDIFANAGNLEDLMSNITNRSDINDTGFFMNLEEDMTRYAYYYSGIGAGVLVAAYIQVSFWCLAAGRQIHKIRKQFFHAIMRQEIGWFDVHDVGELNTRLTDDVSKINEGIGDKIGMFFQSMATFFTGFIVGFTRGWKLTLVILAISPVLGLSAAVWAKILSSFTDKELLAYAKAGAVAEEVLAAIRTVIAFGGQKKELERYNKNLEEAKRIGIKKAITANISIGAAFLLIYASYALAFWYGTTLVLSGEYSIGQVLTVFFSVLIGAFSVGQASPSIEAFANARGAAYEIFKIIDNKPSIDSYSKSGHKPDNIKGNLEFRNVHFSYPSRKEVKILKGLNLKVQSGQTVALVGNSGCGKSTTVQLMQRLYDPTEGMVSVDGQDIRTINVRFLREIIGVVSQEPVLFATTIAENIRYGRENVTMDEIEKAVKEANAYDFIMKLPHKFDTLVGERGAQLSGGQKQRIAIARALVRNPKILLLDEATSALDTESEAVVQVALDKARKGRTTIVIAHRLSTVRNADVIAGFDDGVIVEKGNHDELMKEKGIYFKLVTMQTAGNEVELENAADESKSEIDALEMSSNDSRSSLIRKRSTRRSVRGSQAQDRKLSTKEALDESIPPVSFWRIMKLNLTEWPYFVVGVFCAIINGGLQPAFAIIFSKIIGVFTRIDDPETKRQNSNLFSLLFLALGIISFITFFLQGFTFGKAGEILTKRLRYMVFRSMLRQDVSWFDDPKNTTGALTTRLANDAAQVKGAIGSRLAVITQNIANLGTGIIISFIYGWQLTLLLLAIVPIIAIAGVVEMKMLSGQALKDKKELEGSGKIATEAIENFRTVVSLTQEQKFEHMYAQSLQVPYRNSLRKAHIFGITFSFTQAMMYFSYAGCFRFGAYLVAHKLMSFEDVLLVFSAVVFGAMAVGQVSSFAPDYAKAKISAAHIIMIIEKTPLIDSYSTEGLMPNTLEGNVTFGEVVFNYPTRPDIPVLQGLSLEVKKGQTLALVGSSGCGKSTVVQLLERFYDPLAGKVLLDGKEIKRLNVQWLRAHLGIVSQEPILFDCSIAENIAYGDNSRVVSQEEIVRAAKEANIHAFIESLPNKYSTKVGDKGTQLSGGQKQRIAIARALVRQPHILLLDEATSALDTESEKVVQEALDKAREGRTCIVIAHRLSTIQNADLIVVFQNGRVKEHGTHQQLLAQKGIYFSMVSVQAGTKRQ

Compound	EC50 [1]	EC50 [2]	IC50 [3]
Cc1ccc(-c2cc3nc(C)cc(N4CCN(C(=O)c5ccoc5)CC4)n3n2)cc1	5.56 µM (active)	4.95 µM (active)	
Cc1cccc(C)c1NC(=O)C(c1ccc(-c2ccccc2)cc1)n1c(=O)c(-c2ccco2)nc2ccccc21 (stereo not drawn)			1.34 µM (active)
